Legend:
[1] = Drying of the hydrate salt: loss of the water molecules (IR); assay type: physicochemical
Method: In this case, the precipitation was performed by adding 2.0 volumes of either MeOH, EtOH, acetone or IPA at room temperature. After overnight stirring at room temperature, the suspensions were filtered at room temperature, and the cakes were washed by percolation with 0.4 volumes of H2O/solvent (1:1), and with 0.4 volumes of the corresponding solvent. […]
This phenomenon was observed when recording the IR spectra of the synthesized and dried products, as none of them show the stretching and bending bands typical of water molecules (FIG. 2).

[2] = Stability test: loss on drying with time; assay type: physicochemical
Description: The present inventors confirmed the stability of the hydrate resulting from the process of the invention determining the loss on drying with time.
To that end a well-mixed sample of the sodium tungstate hydrate resulting from Example 2, was subjected to the following protocol. Dry clean glass-stopper, shallow weighing bottle under the same conditions to be employed in the determination. Cool to room temperature in a desiccator and take the weight accurately (W1) g. Transfer to the bottle 1 g of the sample, cover it and accurately weigh the bottle and the contents (W2) g. Place the loaded bottle in the drying chamber (oven), remove the stopper and leave it also in the chamber. Dry the sample to the specified time and temperature to a constant mass (105° C.). After drying is completed, open the drying chamber, close the bottle promptly and allow it to cool to room temperature (where applicable) in a desiccator before weighing. Weigh the bottle and the contents (W3) g. Calculation:
The loss on drying should be not more than 15% (w/w).

O.O.[Na+].[Na+].[O]=[W](=[O])([O-])[O-] [Na2WO4·2H2O, sodium tungstate dihydrate]
stability of the waters of hydration on drying ([1]; drying processes at 100-110° C., IR spectra): dehydration processes of the tungsten salt were detected | fraction of the starting salt that lost the molecules of water ([1]; vacuum dried at a mild temperature of about 50° C.): ~94% | loss on drying with time ([2]; 6-month 40° C./75% HR): the loss was maintained | loss on drying with time ([2]; 18-month test at 25° C./60% HR): the loss was maintained | loss on drying ([2]; sodium tungstate hydrate resulting from Example 2, dried at 105° C. to constant mass, limit not more than 15% (w/w)): below 15%
